# Results as given in patent US9035133B2, “Herbicide-resistant sunflower plants and methods of use” (priority 2006, dated 2015).
# Assays:
# Assay type in all cases: in vivo, Helianthus annuus
# MUT31 sunflower plants = test: Greenhouse factorial experiment, herbicide damage score (imazamox with or without malathion); settings: 7 days after spraying
# Description: (§1) FIG. 1 is a graphical representation of the results of a 2×3×2 factorial experiment to the test the effects of sunflower genotype (RHA266 or MUT31), herbicide dose (0, 0.25X, and, 0.50X; where X=50 g a.i./ha imazamox), and malathion (0 or 1000 g a.i./ha). The sunflower plants were at the 3-4 leaf growth stage at time of malathion and herbicide spraying. Malathion was sprayed on the plants 30 minutes prior to the imazamox spraying. The sunflower plants were evaluated at 7 days after herbicide spraying to determine damage scores. Additional details are provided below in Example 3.
# (§2) To evaluate the detoxification ability of MUT31 sunflower plants, an experiment was conducted in the greenhouse. The objective of the experiment was to determine if the imazamox tolerance of MUT31 plants is associated with detoxification mechanism that is mediated by a P450 monooxygenase enzyme (referred to herein as “P450 enzyme”). […] Thus, plants comprising enhanced herbicide tolerance that is due to an altered P450 enzyme are expected to become less tolerant or susceptible to the herbicide when malthion is applied to the plants before they are treated with the herbicide.
# (§3) A factorial experiment with three factors: genotypes (MUT31 and RHA266), herbicide dose (Control, 0.25X , and 0.50X; where X=50 g ai/ha imazamox) and malathion (with or without malathion) was arranged in a randomized split-split plot block design. Imazamox (SWEEPER) was sprayed at the 3-4 leaf growth stage. The P450 inhibitor malathion was sprayed at a rate of 1000 g ai/ha 30 minutes prior to herbicide spraying.
# RHA266 sunflower plants = test: as above; settings: 7 days after spraying
# Description: as §1, §2, §3
# MUT31 = test: Previous studies (data not shown), crop injury
# [1] = test system: sunflower Entry 6, IMI cms × MUT31 restorer, A205V/MUT31 hetero; test: Field trial, phytotoxicity rating (% crop injury); settings: 21 DAT
# Description: (§4) A field trial was conducted to compare the herbicide tolerance of sunflower hybrids carrying the MUT31 trait and the A205V mutation in a sunflower AHASL gene (A205V/A205V). A sunflower AHASL gene with the A205V mutation encodes a AHASL protein which has a valine at amino acid that corresponds to amino acid position 205 in the Arabidopsis thaliana AHASL protein. The amino acid at the same position in a wild-type sunflower AHASL protein is alanine. In the amino acid sequence of the sunflower AHASL protein, this alanine-to-valine amino acid substitution is at amino acid position 190. By convention, the sites of amino acid substitutions that are known to give rise to herbicide resistance in plant AHASL proteins are typically referred to by the position of the substitution in the amino acid sequence of the Arabidopsis AHASL protein.
# (§5) Seed from each entry was produced under optimum seed production conditions in South America in 2005/2006. The field trial was conducted at one location in North Dakota, USA in 2006. The entries were organized in a randomized complete block using a split plot design consisting of 3 replications for each treatment combination. Factor A was the herbicide treatment, and factor B was the sunflower entry. The plot size was 4 rows×12 ft and the seeding rate was consistent with local agronomic practices. The spray volume was 10 gallons per acre (GPA) (or 100 liters/ha) for a backpack sprayer or 20 GPA (or 200 liters/ha) for a tractor mounted boom. The herbicide treatments were applied at the 2-4 leaf growth stage.
# (§6) Phytotoxicity ratings were assessed at 7 days and 21 days following herbicide application. Phytotoxicity was recorded as the amount of plant damage (in percent), where a rating of ‘0’ indicated no damage to the plants in the plot relative to the untreated plot. A rating of ‘100’ indicated complete necrosis (death) of the plants in the plot relative to the untreated plot.
# (§7) The data was subjected to an ANOVA analysis and the means from the 3 repetitions are presented in Table 8 (phytotoxicity at 21 days post-treatment).
# [2] = test system: sunflower Entry 8, MUT31 Restorer, MUT31 homo; test: Field trial, phytotoxicity rating (% crop injury); settings: 21 DAT
# Description: as §4, §5, §6, §7
# [3] = test system: sunflower Entry 3, WT × IMI restorer, A205V hetero; test: Field trial, phytotoxicity rating (% crop injury); settings: 50 g ai/ha imazamox + 0.25% (v/v) NIS, 21 DAT
# Description: as §4, §5, §6, §7
# [4] = test system: sunflower Entry 1, IMI Restorer, A205V homo; test: Field trial, phytotoxicity rating (% crop injury); settings: 21 DAT
# Description: as §4, §5, §6, §7
# [5] = test system: sunflower Entry 5, A837 cms × IMI restorer, A205V hetero; test: Field trial, phytotoxicity rating (% crop injury); settings: 50 g ai/ha imazamox + 0.25% (v/v) NIS, 21 DAT
# Description: as §4, §5, §6, §7
# [6] = test system: sunflower Entry 2, IMI cms × IMI restorer, A205V homo; test: Field trial, phytotoxicity rating (% crop injury); settings: 21 DAT
# Description: as §4, §5, §6, §7
# [7] = herbicide dose 0× (control), malathion 1000 g ai/ha alone
# [8] = herbicide dose 0× (control), malathion 1000 g ai/ha alone, listed as Malathion
# [9] = 0.25× imazamox (X=50 g ai/ha), malathion 1000 g ai/ha 30 minutes prior
# [10] = 0.25× imazamox (X=50 g ai/ha), no malathion
# [11] = 0.50× imazamox (X=50 g ai/ha), malathion 1000 g ai/ha 30 minutes prior
# [12] = 0.50× imazamox (X=50 g ai/ha), no malathion
# [13] = 100 g ai/ha imazamox + 0.25% (v/v) NIS
# [14] = 160 g ai/ha imazapyr + 0.25% (v/v) NIS
compound,measurement,setting,value
"CCOC(=O)CC(SP(=S)(OC)OC)C(=O)OCC (stereo not drawn) [malathion, diethyl-dimethoxythiophosphorylthio-succinate]",Mean Herbicide Damage Score,MUT31 sunflower plants; [7],no effect
same,Mean Herbicide Damage Score,MUT31 sunflower plants; [8],0.00%
same,Mean Herbicide Damage Score,RHA266 sunflower plants; [7],no effect
same,Mean Herbicide Damage Score,RHA266 sunflower plants; [8],0.00%
COCc1cnc(C2=NC(C)(C(C)C)C(=O)N2)c(C(=O)O)c1 (stereo not drawn) [imazamox],crop injury,MUT31; 75 g ai of imazamox per hectare,100%
same,Mean Herbicide Damage Score,MUT31 sunflower plants; [9],30.35%
same,Mean Herbicide Damage Score,MUT31 sunflower plants; [10],9.50%
same,Mean Herbicide Damage Score,MUT31 sunflower plants; [11],40.31%
same,Mean Herbicide Damage Score,MUT31 sunflower plants; [12],20.13%
same,Mean Herbicide Damage Score,RHA266 sunflower plants; [9],45.30%
same,Mean Herbicide Damage Score,RHA266 sunflower plants; [10],27.95%
same,Mean Herbicide Damage Score,RHA266 sunflower plants; [11],45.50%
same,Mean Herbicide Damage Score,RHA266 sunflower plants; [12],42.35%
same,Phytotoxicity Rating (% Crop Injury),[1]; 50 g ai/ha imazamox + 0.25% (v/v) NIS,1.67%
same,Phytotoxicity Rating (% Crop Injury),[1]; 200 g ai/ha imazamox + 0.25% (v/v) NIS,43%
same,Phytotoxicity Rating (% Crop Injury),[2]; 37.5 g ai/ha imazamox + 0.25% (v/v) NIS,47%
same,Phytotoxicity Rating (% Crop Injury),[3],6.67%
same,Phytotoxicity Rating (% Crop Injury),[4]; [13],6.67%
same,Phytotoxicity Rating (% Crop Injury),[5],3.33%
same,Phytotoxicity Rating (% Crop Injury),[6]; [13],3.33%
CC(C)C1(C)N=C(c2ncccc2C(=O)O)NC1=O (stereo not drawn) [imazapyr],crop injury,MUT31; 100 g ai of imazapyr per hectare,100%
same,Phytotoxicity Rating (% Crop Injury),[2]; 80 g ai/ha imazapyr + 0.25% (v/v) NIS,88.33%
same,Phytotoxicity Rating (% Crop Injury),[4]; [14],6.67%
same,Phytotoxicity Rating (% Crop Injury),[6]; [14],3.33%
